Assay results published in patent US20260337208A1, “HETEROCYCLIC DERIVATIVES AS JANUS KINASE INHIBITORS” (CHIESI FARMACEUTICI S.P.A., priority 2022, published 2026).

Tests used:
JAK1 = JAK1 (Homo sapiens, UniProt P23458); assay: Biochemical potency on JAK1, TR-FRET (LANCE Ultra kinase assay); settings: ATP corresponding to Km; cell-free; read-out: JAK1 inhibitory activity (pIC50) (converted)
Procedure, shortened: (§1)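 ULight-JAK-1 (Tyr1023) peptide phosphorylation at Km ATP, 1.5 h r.t.; substrate solution held peptide 30/50/20/10 nM and ATP 20/0.7/0.2/12 μM, enzyme solution 0.15/0.083/0.025/0.144 ng/μL (JAK1/JAK2/JAK3/TYK2). EDTA stop, Eu-PT66 antibody TR-FRET read at 665 nm; 11-point 5-fold dilutions from 20 μM; IC50 by variable-slope fit.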

TYK2 = TYK2 (Homo sapiens, UniProt P29597); assay: Biochemical potency on Tyk2, TR-FRET (LANCE Ultra kinase assay); settings: ATP corresponding to Km; cell-free; read-out: TYK2 inhibitory activity (pIC50) (converted)
TYK2, sequence (P29597 whole entry): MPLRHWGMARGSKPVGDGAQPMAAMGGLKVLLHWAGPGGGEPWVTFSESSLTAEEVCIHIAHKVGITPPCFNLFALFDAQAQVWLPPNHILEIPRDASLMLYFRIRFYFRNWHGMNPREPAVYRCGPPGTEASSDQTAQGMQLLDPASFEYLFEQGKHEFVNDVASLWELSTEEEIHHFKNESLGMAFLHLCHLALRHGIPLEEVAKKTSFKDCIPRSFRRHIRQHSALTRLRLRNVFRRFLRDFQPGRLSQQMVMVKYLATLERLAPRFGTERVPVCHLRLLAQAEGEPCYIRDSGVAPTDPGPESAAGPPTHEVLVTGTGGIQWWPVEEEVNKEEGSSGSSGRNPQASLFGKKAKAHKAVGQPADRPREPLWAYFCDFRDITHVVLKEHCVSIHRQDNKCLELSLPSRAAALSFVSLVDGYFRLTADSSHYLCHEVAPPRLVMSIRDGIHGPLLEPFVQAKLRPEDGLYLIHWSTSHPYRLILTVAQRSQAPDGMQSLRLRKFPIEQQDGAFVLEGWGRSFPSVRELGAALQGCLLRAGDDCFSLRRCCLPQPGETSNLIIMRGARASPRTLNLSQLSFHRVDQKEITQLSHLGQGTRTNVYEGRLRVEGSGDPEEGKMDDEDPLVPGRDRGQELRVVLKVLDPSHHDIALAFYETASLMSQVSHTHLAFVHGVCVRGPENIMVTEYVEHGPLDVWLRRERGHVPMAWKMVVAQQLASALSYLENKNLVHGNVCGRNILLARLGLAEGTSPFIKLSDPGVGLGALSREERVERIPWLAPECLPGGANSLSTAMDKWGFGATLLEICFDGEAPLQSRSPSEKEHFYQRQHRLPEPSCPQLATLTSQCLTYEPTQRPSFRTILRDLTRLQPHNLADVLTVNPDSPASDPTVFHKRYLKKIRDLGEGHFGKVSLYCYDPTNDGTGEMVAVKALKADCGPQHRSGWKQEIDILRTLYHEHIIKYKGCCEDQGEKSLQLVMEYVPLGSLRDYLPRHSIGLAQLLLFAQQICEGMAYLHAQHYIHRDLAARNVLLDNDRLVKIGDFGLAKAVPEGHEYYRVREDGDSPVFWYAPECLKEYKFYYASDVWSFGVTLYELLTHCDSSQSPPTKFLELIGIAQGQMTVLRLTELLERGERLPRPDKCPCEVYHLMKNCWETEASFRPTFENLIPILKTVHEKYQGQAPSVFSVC
Procedure, shortened: as §1

JAK3 = target: T1, JAK3 (Homo sapiens, UniProt P52333); assay: Biochemical potency on JAK3, TR-FRET (LANCE Ultra kinase assay); settings: ATP corresponding to Km; cell-free; read-out: JAK3 inhibitory activity (pIC50) (converted)
T1 sequence (P52333 1-1124): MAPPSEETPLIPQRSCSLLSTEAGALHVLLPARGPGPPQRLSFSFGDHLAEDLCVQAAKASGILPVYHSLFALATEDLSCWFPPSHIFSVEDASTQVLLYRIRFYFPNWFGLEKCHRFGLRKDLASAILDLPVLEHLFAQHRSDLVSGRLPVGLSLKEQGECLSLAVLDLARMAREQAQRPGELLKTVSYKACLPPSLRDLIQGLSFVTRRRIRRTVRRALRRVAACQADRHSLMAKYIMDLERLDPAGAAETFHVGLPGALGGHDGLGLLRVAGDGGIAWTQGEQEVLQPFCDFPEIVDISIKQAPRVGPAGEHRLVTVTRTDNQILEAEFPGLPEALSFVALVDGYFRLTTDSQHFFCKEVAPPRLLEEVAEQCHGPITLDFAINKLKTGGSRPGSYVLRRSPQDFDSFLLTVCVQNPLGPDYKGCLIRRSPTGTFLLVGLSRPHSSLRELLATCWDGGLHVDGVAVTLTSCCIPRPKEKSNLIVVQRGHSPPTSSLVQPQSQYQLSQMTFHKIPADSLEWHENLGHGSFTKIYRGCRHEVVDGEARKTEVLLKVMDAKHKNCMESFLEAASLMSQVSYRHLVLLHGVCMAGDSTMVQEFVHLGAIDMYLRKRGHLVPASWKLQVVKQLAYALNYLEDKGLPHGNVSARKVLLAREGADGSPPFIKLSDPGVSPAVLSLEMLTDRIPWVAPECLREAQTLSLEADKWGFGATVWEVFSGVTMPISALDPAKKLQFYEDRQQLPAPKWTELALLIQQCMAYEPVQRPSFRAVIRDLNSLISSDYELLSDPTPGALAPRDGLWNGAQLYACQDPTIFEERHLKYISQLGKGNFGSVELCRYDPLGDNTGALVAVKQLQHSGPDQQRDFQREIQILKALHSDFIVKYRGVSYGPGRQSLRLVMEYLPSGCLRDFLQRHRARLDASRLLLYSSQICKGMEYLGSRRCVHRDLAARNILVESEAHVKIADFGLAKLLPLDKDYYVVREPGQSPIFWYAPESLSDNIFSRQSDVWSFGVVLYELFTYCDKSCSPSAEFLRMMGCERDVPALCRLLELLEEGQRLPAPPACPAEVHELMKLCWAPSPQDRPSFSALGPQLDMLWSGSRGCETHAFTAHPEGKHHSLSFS
Procedure, shortened: as §1

JAK2 = JAK2 (Homo sapiens, UniProt O60674); assay: Biochemical potency on JAK2, TR-FRET (LANCE Ultra kinase assay); settings: ATP corresponding to Km; cell-free; read-out: JAK2 inhibitory activity (pIC50) (converted)
JAK2, sequence (O60674 whole entry): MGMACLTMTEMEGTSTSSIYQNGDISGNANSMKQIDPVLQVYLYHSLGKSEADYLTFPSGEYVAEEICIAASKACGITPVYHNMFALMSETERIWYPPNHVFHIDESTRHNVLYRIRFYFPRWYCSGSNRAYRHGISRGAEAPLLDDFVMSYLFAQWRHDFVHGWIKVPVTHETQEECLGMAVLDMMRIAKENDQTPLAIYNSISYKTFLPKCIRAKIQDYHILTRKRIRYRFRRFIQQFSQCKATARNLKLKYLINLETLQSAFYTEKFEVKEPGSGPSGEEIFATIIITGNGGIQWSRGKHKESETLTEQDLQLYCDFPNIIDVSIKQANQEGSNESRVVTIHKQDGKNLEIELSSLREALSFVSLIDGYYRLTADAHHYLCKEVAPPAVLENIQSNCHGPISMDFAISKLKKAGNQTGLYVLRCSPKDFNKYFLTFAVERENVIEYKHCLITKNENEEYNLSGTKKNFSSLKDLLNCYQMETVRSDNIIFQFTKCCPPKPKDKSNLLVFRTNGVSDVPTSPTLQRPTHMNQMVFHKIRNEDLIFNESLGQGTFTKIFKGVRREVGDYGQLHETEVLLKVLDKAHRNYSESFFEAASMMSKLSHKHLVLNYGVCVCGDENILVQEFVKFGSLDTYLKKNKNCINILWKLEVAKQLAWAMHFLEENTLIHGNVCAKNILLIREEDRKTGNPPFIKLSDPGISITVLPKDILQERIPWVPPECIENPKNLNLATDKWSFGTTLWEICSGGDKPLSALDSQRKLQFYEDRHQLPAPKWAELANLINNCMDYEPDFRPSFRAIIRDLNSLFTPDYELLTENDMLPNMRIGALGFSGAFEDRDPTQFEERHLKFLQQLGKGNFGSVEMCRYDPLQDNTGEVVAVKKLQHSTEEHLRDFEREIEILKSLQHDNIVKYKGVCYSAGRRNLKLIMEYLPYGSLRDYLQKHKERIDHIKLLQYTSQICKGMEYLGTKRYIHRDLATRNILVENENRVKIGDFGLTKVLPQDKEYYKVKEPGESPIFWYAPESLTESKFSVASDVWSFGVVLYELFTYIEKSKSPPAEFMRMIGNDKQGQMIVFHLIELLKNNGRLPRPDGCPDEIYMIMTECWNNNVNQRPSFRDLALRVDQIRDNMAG
Procedure, shortened: as §1

[1] = system: pSTAT6 in BEAS-2B human cell line; assay: Inhibition of IL-13 induced pSTAT6 in BEAS; format: cell-based; settings: for IC50: Homo sapiens, BEAS-2B, 0.5 h, IL-13 trigger, 30 min, parent compound; for Fold difference parent vs predicted acid metabolite: ratio=IC50 predicted acid metabolite/IC50 ester
Procedure, shortened: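 BEAS-2B cells grown 48 h, pre-treated 30 min with compound, then stimulated 30 min with IL-13. Lysate pSTAT6 (Tyr641) measured by sandwich ELISA. Eleven 5-fold dilutions from 10 μM, in duplicate, fitted to IC50.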

JAK1, sequence (P23458 whole entry): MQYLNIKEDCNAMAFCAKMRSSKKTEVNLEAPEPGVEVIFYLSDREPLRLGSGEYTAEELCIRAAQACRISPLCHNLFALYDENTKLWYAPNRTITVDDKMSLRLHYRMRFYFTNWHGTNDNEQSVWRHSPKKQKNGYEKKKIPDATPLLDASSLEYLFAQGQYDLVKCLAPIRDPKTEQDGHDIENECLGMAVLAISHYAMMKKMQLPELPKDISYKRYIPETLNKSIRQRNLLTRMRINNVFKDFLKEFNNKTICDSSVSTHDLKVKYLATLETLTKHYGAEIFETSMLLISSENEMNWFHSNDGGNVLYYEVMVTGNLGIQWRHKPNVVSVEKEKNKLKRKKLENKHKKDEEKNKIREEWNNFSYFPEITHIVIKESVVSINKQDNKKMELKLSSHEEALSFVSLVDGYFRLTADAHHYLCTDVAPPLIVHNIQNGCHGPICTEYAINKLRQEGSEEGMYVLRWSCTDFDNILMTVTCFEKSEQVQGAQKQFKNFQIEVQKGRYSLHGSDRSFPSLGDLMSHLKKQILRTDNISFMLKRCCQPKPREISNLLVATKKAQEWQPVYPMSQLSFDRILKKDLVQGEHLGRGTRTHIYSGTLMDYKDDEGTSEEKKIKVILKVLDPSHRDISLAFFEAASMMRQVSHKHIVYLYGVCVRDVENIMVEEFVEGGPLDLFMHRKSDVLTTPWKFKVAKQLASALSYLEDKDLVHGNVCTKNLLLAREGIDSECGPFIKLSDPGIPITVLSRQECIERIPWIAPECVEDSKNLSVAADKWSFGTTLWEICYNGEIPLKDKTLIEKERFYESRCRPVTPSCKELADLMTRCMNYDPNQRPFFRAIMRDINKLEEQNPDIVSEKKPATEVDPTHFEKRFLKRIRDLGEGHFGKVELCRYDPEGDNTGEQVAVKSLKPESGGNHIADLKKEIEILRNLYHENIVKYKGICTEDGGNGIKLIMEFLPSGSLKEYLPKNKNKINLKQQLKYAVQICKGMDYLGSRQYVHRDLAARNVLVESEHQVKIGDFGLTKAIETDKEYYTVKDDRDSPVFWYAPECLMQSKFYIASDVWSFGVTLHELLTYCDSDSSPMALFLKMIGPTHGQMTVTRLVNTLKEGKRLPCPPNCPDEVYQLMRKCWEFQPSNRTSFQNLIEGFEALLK

SMILES	IC50 (JAK1)	IC50 (TYK2)	IC50 (JAK3)	IC50 (JAK2)	IC50 [1]	Fold difference parent vs predicted acid metabolite [1]
COc1cc2c(cc1-n1nc(C(=O)OCCCN3CCN(C)CC3)c3cnc(-c4cnn5cccnc45)cc31)SCCN2 [Example 8, 3-(4-methylpiperazin-1-yl)propyl 1-(6-methoxy-3,4-dihydro-2H-benzo[b][1,4]thiazin-7-yl)-6-(pyrazolo[1,5-a]pyrimidin-3-yl)-1H-pyrazolo[4,3-c]pyridine-3-carboxylate]	≤ 5.01 nM	≤ 5.01 nM	≤ 5.01 nM	≤ 5.01 nM	5.01 to 50.1 nM	–
COc1cc2c(cc1-n1nc(C(=O)OCCCN(C)C)c3cnc(-c4cnn5cccnc45)cc31)SCCN2 [Example 7, 3-(dimethylamino)propyl 1-(6-methoxy-3,4-dihydro-2H-benzo[b][1,4]thiazin-7-yl)-6-(pyrazolo[1,5-a]pyrimidin-3-yl)-1H-pyrazolo[4,3-c]pyridine-3-carboxylate]	≤ 5.01 nM	≤ 5.01 nM	≤ 5.01 nM	≤ 5.01 nM	≤ 5.01 nM	–
CCOC(=O)C1CCCN(CCNC(=O)c2nn(-c3cc4c(cc3OC)NCCO4)c3cc(-c4cnn5cccnc45)ncc23)C1 (centres unmarked) [Example 27, ethyl 1-(2-(1-(6-methoxy-3,4-dihydro-2H-benzo[b][1,4]oxazin-7-yl)-6-(pyrazolo[1,5-a]pyrimidin-3-yl)-1H-pyrazolo[4,3-c]pyridine-3-carboxamido)ethyl)piperidine-3-carboxylate]	≤ 5.01 nM	5.01 to 50.1 nM	≤ 5.01 nM	≤ 5.01 nM	5.01 to 50.1 nM	–
COc1cc2c(cc1-n1nc(C(=O)NCCN3CCC(C(=O)OC4CCOCC4)CC3)c3cnc(-c4cnn5cccnc45)cc31)OCCN2 [Example 17, tetrahydro-2H-pyran-4-yl 1-(2-(1-(6-methoxy-3,4-dihydro-2H-benzo[b][1,4]oxazin-7-yl)-6-(pyrazolo[1,5-a]pyrimidin-3-yl)-1H-pyrazolo[4,3-c]pyridine-3-carboxamido)ethyl)piperidine-4-carboxylate]	≤ 5.01 nM	5.01 to 50.1 nM	≤ 5.01 nM	≤ 5.01 nM	≤ 5.01 nM	kkkk (ratio≥200)
COc1cc2c(cc1-n1nc(C(=O)NCCN3CCC(C(=O)OCC(F)(F)F)CC3)c3cnc(-c4cnn5cccnc45)cc31)OCCN2 [Example 13, 2,2,2-trifluoroethyl 1-(2-(1-(6-methoxy-3,4-dihydro-2H-benzo[b][1,4]oxazin-7-yl)-6-(pyrazolo[1,5-a]pyrimidin-3-yl)-1H-pyrazolo[4,3-c]pyridine-3-carboxamido)ethyl)piperidine-4-carboxylate]	≤ 5.01 nM	5.01 to 50.1 nM	≤ 5.01 nM	≤ 5.01 nM	≤ 5.01 nM	kkkk (ratio≥200)
CCOC(=O)C1(F)CCN(CCNC(=O)c2nn(-c3cc4c(cc3OC)NCCO4)c3cc(-c4cnn5cccnc45)ncc23)CC1 [Example 28, ethyl 4-fluoro-1-(2-(1-(6-methoxy-3,4-dihydro-2H-benzo[b][1,4]oxazin-7-yl)-6-(pyrazolo[1,5-a]pyrimidin-3-yl)-1H-pyrazolo[4,3-c]pyridine-3-carboxamido)ethyl)piperidine-4-carboxylate]	≤ 5.01 nM	5.01 to 50.1 nM	≤ 5.01 nM	≤ 5.01 nM	5.01 to 50.1 nM	–
CCC(C)OC(=O)C1CCN(CCNC(=O)c2nn(-c3cc4c(cc3OC)NCCO4)c3cc(-c4cnn5cccnc45)ncc23)CC1 (centres unmarked) [Example 10, sec-butyl 1-(2-(1-(6-methoxy-3,4-dihydro-2H-benzo[b][1,4]oxazin-7-yl)-6-(pyrazolo[1,5-a]pyrimidin-3-yl)-1H-pyrazolo[4,3-c]pyridine-3-carboxamido)ethyl)piperidine-4-carboxylate]	≤ 5.01 nM	5.01 to 50.1 nM	≤ 5.01 nM	≤ 5.01 nM	≤ 5.01 nM	kkkk (ratio≥200)

The next lines start with results.

IC50 (JAK1)	IC50 (TYK2)	IC50 (JAK3)	IC50 (JAK2)	SMILES	IC50 [1]	Fold difference parent vs predicted acid metabolite [1]
≤ 5.01 nM	5.01 to 50.1 nM	≤ 5.01 nM	≤ 5.01 nM	COC(=O)[C@H]1CCN(CCNC(=O)c2nn(-c3cc4c(cc3OC)NCCO4)c3cc(-c4cnn5cccnc45)ncc23)C1 [Example 30, methyl (S)-1-(2-(1-(6-methoxy-3,4-dihydro-2H-benzo[b][1,4]oxazin-7-yl)-6-(pyrazolo[1,5-a]pyrimidin-3-yl)-1H-pyrazolo[4,3-c]pyridine-3-carboxamido)ethyl)pyrrolidine-3-carboxylate]	5.01 to 50.1 nM	kkkk (ratio≥200)
≤ 5.01 nM	5.01 to 50.1 nM	≤ 5.01 nM	≤ 5.01 nM	COc1cc2c(cc1-n1nc(C(=O)NCCN3CCC(CC(=O)O[C@@H]4CCN(CCF)C4)CC3)c3cnc(-c4cnn5cccnc45)cc31)OCCN2 [Example 52, (R)-1-(2-fluoroethyl)pyrrolidin-3-yl 2-(1-(2-(1-(6-methoxy-3,4-dihydro-2H-benzo[b][1,4]oxazin-7-yl)-6-(pyrazolo[1,5-a]pyrimidin-3-yl)-1H-pyrazolo[4,3-c]pyridine-3-carboxamido)ethyl)piperidin-4-yl)acetate]	5.01 to 50.1 nM	kkk (200>ratio≥100)
≤ 5.01 nM	5.01 to 50.1 nM	≤ 5.01 nM	≤ 5.01 nM	COc1cc2c(cc1-n1nc(C(=O)NCCN3CCC(C(=O)OCCCC#N)CC3)c3cnc(-c4cnn5cccnc45)cc31)OCCN2 [Example 54, 3-cyanopropyl 1-(2-(1-(6-methoxy-3,4-dihydro-2H-benzo[b][1,4]oxazin-7-yl)-6-(pyrazolo[1,5-a]pyrimidin-3-yl)-1H-pyrazolo[4,3-c]pyridine-3-carboxamido)ethyl)piperidine-4-carboxylate]	≤ 5.01 nM	kkkk (ratio≥200)
≤ 5.01 nM	5.01 to 50.1 nM	≤ 5.01 nM	≤ 5.01 nM	COc1cc2c(cc1-n1nc(C(=O)NCCN3CCC(C(=O)OC4CCN(C)CC4)CC3)c3cnc(-c4cnn5cccnc45)cc31)OCCN2 [Example 42, 1-methylpiperidin-4-yl 1-(2-(1-(6-methoxy-3,4-dihydro-2H-benzo[b][1,4]oxazin-7-yl)-6-(pyrazolo[1,5-a]pyrimidin-3-yl)-1H-pyrazolo[4,3-c]pyridine-3-carboxamido)ethyl)piperidine-4-carboxylate]	5.01 to 50.1 nM	kkk (200>ratio≥100)
≤ 5.01 nM	5.01 to 50.1 nM	≤ 5.01 nM	≤ 5.01 nM	CCSC(=O)C1CCN(CCNC(=O)c2nn(-c3cc4c(cc3OC)NCCO4)c3cc(-c4cnn5cccnc45)ncc23)CC1 [Example 59, S-ethyl 1-(2-(1-(6-methoxy-3,4-dihydro-2H-benzo[b][1,4]oxazin-7-yl)-6-(pyrazolo[1,5-a]pyrimidin-3-yl)-1H-pyrazolo[4,3-c]pyridine-3-carboxamido)ethyl)piperidine-4-carbothioate]	≤ 5.01 nM	kkkk (ratio≥200)
